Legend:
[1] = test system: MDA-MB-436 cells (BRCA1 mutation); experiment: Anti-proliferation assay on MDA-MB-436 cells (BRCA1 mutation); assay type: cell-based; settings: Homo sapiens, MDA-MB-436, 168 h; incubated for 7 days, chemiluminescent cell viability; read-out: IC50, proliferation inhibition on MDA-MB-436 cells (BRCA1 mutation)
Protocol: MDA-MB-436 cells (BRCA1 mutation) were seeded in black 96-well plates with clear bottoms. Each well contained 135 μL of cell suspension with 3,500 MDA-MB-436 cells (BRCA1 mutation). The cell plate was incubated overnight in a CO2 incubator. A 400× stock solution of the test compound was prepared. […] 78 μL of medium was added to an intermediate plate. Subsequently, 2 μL of the serially diluted compound per well was transferred to the corresponding wells of the intermediate plate. 2 μL of DMSO was added to the vehicle control and blank control. After mixing well, 15 μL of the mixture per well was then transferred to the cell plate. […] The cell plate was incubated for 7 days in a CO2 incubator. The cell plate was removed and equilibrated to room temperature for 30 minutes. 75 μL of chemiluminescent cell viability assay reagent was added to each well. The cell plate was shaken on an orbital shaker for 3 minutes to induce cell lysis, followed by 10 minutes of incubation at room temperature to stabilize the luminescent signal.

[2] = In vitro liver microsomal stability, human liver microsomes
Protocol: (§2) The concentration of the compound in the samples was determined by LC-MS/MS.
(§3) Experimental process: The incubation was performed using 96-well incubation plates, with individual plates labeled as T0, T5, T15, T30, T45, T60, Blank60, and NCF60. The reaction time points corresponding to the incubation plates were set at 0, 5, 15, 30, 45, and 60 minutes. In the Blank60 plate, no test compound or control compound was added, and the sample was collected after 60 minutes of incubation. In the NCF60 plate, potassium phosphate buffer was used in place of the NADPH regeneration system and incubated for 60 minutes. All time point samples were taken from individual wells.
For the T0, T5, T15, T30, T45, T60, and NCF60 plates, 5 μL of either the test or control compound working solution and 100 μL of microsomal working solution (with a liver microsomal protein concentration of 0.5 mg/mL) were added. Only microsomal working solution was added to the Blank60 well. In the Blank60 plate, only the microsomal working solution was added. Then, the incubation plates, except for TO and NCF60, including Blank60, T5, T15, T30, T45, and T60, were pre-incubated in a 37° C. water bath for approximately 10 minutes.
For samples in the TO plate, 180 μL of stop solution (where the stop solution was a solution of acetonitrile and methanol (95:5, V/V) containing 100 ng/mL tolbutamide) was added before adding the NADPH regeneration system working solution.
50 μL of potassium phosphate buffer was added to each well of the NCF60 plate and incubated for 60 minutes.
After the pre-incubation of Blank60, T5, T15, T30, T45, and T60 incubation plates, 44 μL of NADPH regeneration system working solution was added to each sample well to initiate the reaction. Therefore, for sample wells containing either the test compound or the control compound working solutions, the final reaction concentration was 1 μM, with the concentration of liver microsomes at 0.5 mg/mL. The final concentrations of DMSO and acetonitrile in the reaction system were 0.01% (v/v) and 0.99% (v/v), respectively.
After incubation for an appropriate period (e.g., 5, 15, 30, 45, and 60 minutes), 180 μL of stop solution was added to each test compound and control compound sample well in the Blank60, T5, T15, T30, T45, T60, and NCF60 plates to stop the reaction.
All sample plates were shaken thoroughly and centrifuged for 10 minutes. A volume of 80 μL of the supernatant from each test compound was diluted to 240 L with a solution of acetonitrile (1:9, v/v) containing 0.1% formic acid for LC-MS/MS analysis.

[3] = In vitro liver microsomal stability, mouse liver microsomes
Protocol: as §2, §3
For the T0, T5, T15, T30, T45, T60, and NCF60 plates, 5 μL of either the test or control compound working solution and 100 μL of microsomal working solution (with a liver microsomal protein concentration of 0.5 mg/mL) were added. Only microsomal working solution was added to the Blank60 well. In the Blank60 plate, only the microsomal working solution was added. Then, the incubation plates, except for TO and NCF60, including Blank60, T5, T15, T30, T45, and T60, were pre-incubated in a 37° C. water bath for approximately 10 minutes. […]

PARP2 = PARP2 (Homo sapiens (Human), UniProt Q9UGN5); experiment: Binding activity between compound and PARP2, fluorescence polarization assay; settings: 3 nM PARP2, 5 nM fluorescent probe, 4 hours at room temperature
Protocol: (§1) The fluorescence polarization assay was performed in 96-well black-walled plates (Greiner). The reaction buffer consisted of 50 mM Tris (pH 8), 0.001% Triton X100, 10 mM MgCl2, and 150 mM NaCl. Both the fluorescent probe and His-Avi-tagged PARP2 protein were manufactured by WuXi AppTec (Shanghai). In a 100 μL reaction system, 3 nM PARP2, 5 nM fluorescent probe, and the compounds were added respectively. The compound concentration was prepared following the starting concentration and dilution gradient in Table 2. The test sample was incubated at room temperature for 4 hours, protected from light. Fluorescence polarization values were measured using an EnVision plate reader. The obtained fluorescence polarization values and compound concentrations were subjected to nonlinear fitting using GraphPad 8.0 software to determine the IC50 values.

PARP1 = PARP1 (Homo sapiens (Human), UniProt P09874); experiment: Binding activity between compound and PARP1, fluorescence polarization assay; settings: 8 nM PARP1, 5 nM fluorescent probe, 4 hours at room temperature
Protocol: as §1, with “PARP1” for “PARP2”, “8” for “3”, “PARP1,” for “PARP2,”, “1. […]” for “2.”, “En Vision” for “EnVision”

DLD1 (BRCA2 KO) cells = experiment: Anti-proliferation assay on DLD1 cells (BRCA2 KO); assay type: cell-based; settings: Homo sapiens, DLD-1, 168 h; incubated for 7 days, chemiluminescent cell viability
Protocol: DLD1 (BRCA2 KO) cells were seeded in white a 96-well plate with 80 μL of cell suspension per well, containing 1,000 DLD1 (BRCA2 KO) cells per well. The cell plate was incubated overnight in a CO2 incubator. The test compounds were 5-fold diluted with a multi-channel pipette to the 8th concentration, i.e., diluted from 2 mM to 0.0256 μM, and duplicate experiment was set. 78 μL of medium was added to an intermediate plate. Subsequently, 2 μL of the serially diluted compound per well was transferred to the corresponding wells of the intermediate plate and mixed well. 20 μL of the mixture per well was then transferred to the cell plate. The concentration of the compound transferred to the cell plate ranged from 10 μM to 0.128 nM. The cell plate was incubated for 7 days in a CO2 incubator. An additional cell plate was prepared to read the signal value on the day of compound addition, which served as the maximum value (Max in the following equation) for data analysis. The cell plate was added with 25 μL of chemiluminescent cell viability assay reagent per well and incubated at room temperature for 10 minutes to stabilize the luminescent signal. A multimode microplate reader was used for reading. […].

Sequence of PARP2 (Q9UGN5 whole entry): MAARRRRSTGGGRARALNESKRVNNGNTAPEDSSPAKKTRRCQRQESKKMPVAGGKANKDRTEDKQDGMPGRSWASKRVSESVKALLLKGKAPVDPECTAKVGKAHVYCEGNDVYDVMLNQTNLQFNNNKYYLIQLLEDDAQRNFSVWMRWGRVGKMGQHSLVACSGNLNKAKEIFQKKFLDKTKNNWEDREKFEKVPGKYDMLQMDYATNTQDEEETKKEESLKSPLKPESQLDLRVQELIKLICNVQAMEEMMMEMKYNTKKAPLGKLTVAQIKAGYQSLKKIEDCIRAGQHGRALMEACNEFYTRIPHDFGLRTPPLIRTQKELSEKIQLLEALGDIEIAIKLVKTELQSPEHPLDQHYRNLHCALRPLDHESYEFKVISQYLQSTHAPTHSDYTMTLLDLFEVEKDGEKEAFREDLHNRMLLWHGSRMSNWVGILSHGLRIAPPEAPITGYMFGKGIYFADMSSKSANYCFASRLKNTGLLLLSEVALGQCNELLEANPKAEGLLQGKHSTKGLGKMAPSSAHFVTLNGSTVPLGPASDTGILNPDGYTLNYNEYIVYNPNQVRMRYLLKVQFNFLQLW
Sequence of PARP1 (P09874 whole entry): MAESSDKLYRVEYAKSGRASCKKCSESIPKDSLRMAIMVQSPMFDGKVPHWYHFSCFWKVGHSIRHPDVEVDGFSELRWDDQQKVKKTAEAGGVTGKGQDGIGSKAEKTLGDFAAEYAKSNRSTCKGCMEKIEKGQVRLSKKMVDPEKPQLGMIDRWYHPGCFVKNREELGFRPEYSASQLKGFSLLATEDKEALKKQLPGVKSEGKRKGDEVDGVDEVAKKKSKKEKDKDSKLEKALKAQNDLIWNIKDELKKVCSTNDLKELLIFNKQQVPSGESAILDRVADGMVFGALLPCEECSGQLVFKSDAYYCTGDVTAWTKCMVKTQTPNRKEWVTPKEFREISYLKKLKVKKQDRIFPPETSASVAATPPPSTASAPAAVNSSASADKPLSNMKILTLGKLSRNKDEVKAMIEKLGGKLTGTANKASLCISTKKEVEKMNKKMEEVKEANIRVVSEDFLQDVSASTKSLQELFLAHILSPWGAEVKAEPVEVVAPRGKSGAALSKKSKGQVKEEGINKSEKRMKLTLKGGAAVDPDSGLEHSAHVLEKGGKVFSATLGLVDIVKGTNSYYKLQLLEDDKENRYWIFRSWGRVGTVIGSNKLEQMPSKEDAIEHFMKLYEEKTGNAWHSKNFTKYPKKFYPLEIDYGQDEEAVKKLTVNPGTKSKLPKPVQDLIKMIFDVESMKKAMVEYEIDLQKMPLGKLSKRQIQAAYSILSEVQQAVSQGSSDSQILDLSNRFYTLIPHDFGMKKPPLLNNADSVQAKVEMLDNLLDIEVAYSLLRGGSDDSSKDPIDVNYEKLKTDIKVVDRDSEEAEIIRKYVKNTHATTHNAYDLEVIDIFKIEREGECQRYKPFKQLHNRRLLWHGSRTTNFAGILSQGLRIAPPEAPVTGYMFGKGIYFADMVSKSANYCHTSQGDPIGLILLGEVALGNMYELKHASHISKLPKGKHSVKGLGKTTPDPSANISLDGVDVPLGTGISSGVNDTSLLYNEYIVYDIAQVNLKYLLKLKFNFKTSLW

Row | Compound | IC50 [1] [nM] | IC50 (PARP1) [nM] | other results
1 | CNC(=O)c1ccc(C2=CCN(Cc3ccc4c([nH]c(=O)c5cccnc54)c3F)CC2)c(F)n1 [Compound 27] | 0.69 |  | CLint scaled at 1 μM [2]: 9.5 mL/min/kg; half-life at 1 μM [2]: 2.2 h
2 | CNC(=O)c1ccc(C2=CCN(Cc3ccc4c([nH]c(=O)c5cccn54)c3F)CC2)c(F)n1 [Compound 28] | 0.37 |  | 
3 | [2H]C([2H])([2H])NC(=O)c1ccc(N2CCN(Cc3ccc4c([nH]c(=O)c5cccnc54)c3F)CC2)c(F)n1 [Compound 29] | 1.14 |  | CLint scaled at 1 μM [3]: < 38 mL/min/kg
4 | [2H]C([2H])([2H])NC(=O)c1ccc(C2=CCN(Cc3ccc4c([nH]c(=O)c5cccnc54)c3F)CC2)c(F)n1 [Compound 31] | 0.75 | 4.7 | IC50 (PARP2): > 20000 nM; CLint scaled at 1 μM [2]: < 8.6 mL/min/kg; half-life at 1 μM [2]: > 2.42 h
5 | [2H]C([2H])(c1ccc2c([nH]c(=O)c3cccnc32)c1F)N1CCN(c2ccc(C(=O)NC)nc2F)CC1 [Compound 44] | 0.65 |  | 
6 | [2H]C([2H])(c1ccc2c([nH]c(=O)c3cccnc32)c1F)N1CCN(c2ccc(C(=O)NC)nc2Cl)CC1 [Compound 45] | 0.27 |  | 
7 | CNC(=O)c1ccc(N2CCN(Cc3ccc4c([nH]c(=O)c5cc(F)cnc54)c3F)CC2)c(Cl)n1 [Compound 50] | 0.41 | 7.9 | IC50 (PARP2): > 20000 nM
8 | [2H]C([2H])([2H])NC(=O)c1ccc(N2CCN(Cc3ccc4c([nH]c(=O)c5cc(F)cnc54)c3F)CC2)c(Cl)n1 [Compound 52] |  | 5.5 | 
9 | CNC(=S)c1ccc(N2CCN(Cc3ccc4nc(C)c(=O)[nH]c4c3F)CC2)c(F)n1 [Trifluoroacetate of compound 5] | 1.2 |  | 
10 | CNC(=O)c1ccc2c(n1)CC[C@H]1CN(Cc3c(F)cc4nc(C)c(=O)[nH]c4c3F)CCN21 [Trifluoroacetate of compound 19] |  | 14 | IC50 (DLD1 (BRCA2 KO) cells): 24.2 nM; IC50 (PARP2): > 50000 nM
11 | CNC(=O)c1ccc(N2CCN(Cc3cc(F)c4nc(C)c(=O)[nH]c4c3F)CC2)c(F)n1 [Trifluoroacetate of compound 22] | 5.73 |  | IC50 (DLD1 (BRCA2 KO) cells): 4.43 nM

Reference: US20250295642A1, “FLUOROQUINOXALINONE DERIVATIVE FOR SELECTIVELY INHIBITING PARP1” (MEDSHINE DISCOVERY INC., priority 2022, published 2025)
